Reference: patent US7064139B2, “Method for treating retroviral infections” (Uniroyal Chemical Company, Inc., priority 2001, dated 2006)
Converted amounts (≈) assume the structure as drawn. Where two headings read alike, the source gives them in different places.

Tests used:
HIV-2 (ROD) = assay: Inhibition of HIV-2 syncytium formation in CEM cells; assay type: cell-based; conditions: for EC50: Human immunodeficiency virus 2, CCRF-CEM, read-out: EC50 (ug/ml) HIV-2; for HIV-2 % Protection: protection of CEM cells against virus-induced cytopathicity at the concentration in the previous column
Description: (§1) The cell type used to determine activity of the compounds of the invention herein, i.e., the test compounds, against HIV was human T-lymphoblast (CEM) cells obtained from the American Tissue Cell Culture Collection (Rockville, Md.). HIV-1 (IIIB) was originally obtained from the culture of persistently HIV-1 infected H9 cells and was provided by R. C. Gallo and M. Popovic (National Cancer Institute, National Institutes of Health, Bethesda, Md.). HIV-2 (ROD) was originally obtained from L. M. Montagnier (Pasteur Institute, Paris, France).
(§2) To determine the antiviral activity of the test compounds, CEM cells were suspended at a cell density of approximately 300,000 cells per ml of culture medium and infected with approximately 100 CCID50 (100 CCID50 being the 50% cell culture infective dose) of HIV-1 (IIIB) or HIV-2 (ROD)). Then 100 μl of the infected cell suspensions was added to 200 μl micro titer plate wells containing 100 μl of appropriate serial (5-fold) dilutions of the test compounds. The inhibitory effect of the test compounds on HIV-1 or HIV-2 syncytium formation in CEM cells was examined microscopically on day four post infection.
(§3) In these cases, the percent protection of the cells against virus-induced cytopathicity by the test compounds at the indicated compound concentration in the previous column is given.

Davis strain CMV = assay: Reduction of CMV-induced cytopathicity in HEL cells; assay type: cell-based, human cytomegalovirus (HCMV); conditions: for EC50: read-out: Antiviral EC50 (ug/ml) Davis strain CMV; for Antiviral % Inhibition Davis strain CMV: estimate of percent protection at the concentration in the previous column
Procedure: Confluent HEL cells grown in […] microtiter plates were inoculated with CMV at an input of 100 PFU (plaque forming units) per well. After a one to two hour incubation period, residual virus was removed and the infected cells were further incubated with MEM (Minimal Essential Medium) (supplemented with 2% inactivated Fetal Calf Serum (FCS), […], and 0.3% sodium bicarbonate) containing varying concentrations of the test compounds. Antiviral activity was expressed as EC50 (50% effective concentration), or test compound concentration required to reduce virus-induced cytopathicity after seven days by 50% compared to the untreated control.
In some cases, the compounds had considerable cytotoxicity against HEL cells, which made determination of the EC50 difficult. In these cases, an estimate of the percent protection at the compound concentration indicated in the previous columns is given.

HIV-1 (IIIB) = assay: microbe, parasite or virus in culture; assay type: cell-based; conditions: for EC50: Human immunodeficiency virus 1, IIIB, CCRF-CEM, read-out: EC50 (ug/ml) HIV-1; for HIV-1 % Protection: protection of CEM cells against virus-induced cytopathicity at the concentration in the previous column
Description: as §1, §2, §3

[1] = CEM cells, syncytium formation, day four post infection
[2] = Human betaherpesvirus 5, 168 h, HEL cells, virus-induced cytopathicity after seven days
[3] = HEL cells, virus-induced cytopathicity after seven days

SMILES | HIV-2 % Protection (HIV-2 (ROD)) | Antiviral % Inhibition Davis strain CMV (Davis strain CMV; HEL cells) | EC50 (ug/ml) HIV-2 (HIV-2 (ROD); [1]) | Antiviral EC50 (ug/ml) Davis strain CMV (Davis strain CMV; [3]) | EC50 (ug/ml) HIV-1 (HIV-1 (IIIB); [1]) | also measured
Cc1ccc(C)c(C(C)Sc2cc(C)c3ccccc3n2)c1 (centres unmarked) [Compound 162, 2-[[1-(2,5dimethylphenyl)ethyl]thio]-4-methyl-Quinoline] | 0.0% | – | – | – | – | EC50 (HIV-2 (ROD)): > 0.16 µg/mL; EC50 (Davis strain CMV; Human betaherpesvirus 5, HEL, 168 h): 1.6 µg/mL (≈ 5.2 µM); EC50 (HIV-1 (IIIB)): > 0.8 µg/mL; HIV-1 % Protection (HIV-1 (IIIB)): 0.0%
O=[N+]([O-])c1cc(CS(=O)(=O)c2cccc[n+]2[O-])ccc1Cl [Compound 64, 2-[[(4-chloro-3-nitrophenyl)methyl]sulfonyl]-pyridine-1-oxide] | – | 10.0% | – | – | – | EC50 (HIV-2 (ROD); [1]): 1.9 µg/mL (≈ 5.78 µM); EC50 (Davis strain CMV; [2]): > 5 µg/mL; EC50 (HIV-1 (IIIB); [1]): 1.5 µg/mL (≈ 4.56 µM)
Cc1ccccc1C(C)S(=O)(=O)c1cccc[n+]1[O-] (centres unmarked) [Compound 104] | – | – | 2.5 µg/mL (≈ 9.01 µM) | 34.5 µg/mL | 40.00 µg/mL (≈ 144 µM) | –
Cc1ccc(C)c(C(C)S(=O)(=O)c2ccc(C)c[n+]2[O-])c1 (centres unmarked) [Compound 110, 2-[1-(2,5-Dimethylphenyl)ethylsulfonyl]-5-methylpyridine N-oxide] | 0.0% | – | – | – | – | EC50 (HIV-2 (ROD); [1]): > 100 µg/mL; EC50 (Davis strain CMV; [2]): 50 µg/mL (≈ 164 µM); EC50 (HIV-1 (IIIB); [1]): 5.5 µg/mL (≈ 18 µM)
COc1ccc(Br)c(CS(=O)(=O)c2cccc[n+]2[O-])c1 [Compound 31] | – | – | 9.0 µg/mL (≈ 25.1 µM) | 10.0 µg/mL | 4.00 µg/mL (≈ 11.2 µM) | –
N#Cc1ccc(CS(=O)(=O)c2cccc[n+]2[O-])cc1 [Compound 34] | – | 10.0% | 10.0 µg/mL (≈ 36.5 µM) | >20 µg/mL | 9.00 µg/mL (≈ 32.8 µM) | –
Cc1ccc(C)c(C(C)S(=O)(=O)c2cc(C)cc(C)[n+]2[O-])c1 (centres unmarked) [Compound 81] | 0.0% | – | >20.0 µg/mL | 8.6 µg/mL | ≧20 ug/ml | HIV-1 % Protection (HIV-1 (IIIB)): 37.5%
CCC(c1cc(C)ccc1C)S(=O)(=O)c1c(C)ccc[n+]1[O-] (centres unmarked) [Compound 79, 2-[[1-(2,5-dimethylphenyl)propyl]sulfonyl]-3-methylpyridine-1-oxide] | 37.5% | – | – | – | – | EC50 (HIV-2 (ROD); [1]): ≥ 20 µg/mL; EC50 (Davis strain CMV; [2]): 0.8 µg/mL (≈ 2.5 µM); EC50 (HIV-1 (IIIB); [1]): 1.4 µg/mL (≈ 4.38 µM)
Cc1ccc(C)c(C(C)S(=O)(=O)c2ccccn2)c1 (centres unmarked) [Compound 161] | 0.0% | – | >100 µg/mL | 38.0 µg/mL | 9.50 µg/mL (≈ 34.5 µM) | –
O=S(=O)(Cc1cccc(F)c1)c1cccc[n+]1[O-] [Compound 28] | – | 40.0% | 7.5 µg/mL (≈ 28.1 µM) | >20 µg/mL | 6.50 µg/mL (≈ 24.3 µM) | –
COc1ccc(C=C(C#N)Sc2cccc[n+]2[O-])cc1 [Compound 159] | 25.0% | – | >20 µg/mL | 10.0 µg/mL | >20 µg/mL | HIV-1 % Protection (HIV-1 (IIIB)): 0.0%
CC(C)c1ccc(C(C)C)c(CS(=O)(=O)c2cccc[n+]2[O-])c1 [Compound 35] | 37.5% | – | ≧4 ug/ml | 3.2 µg/mL | ≧4 ug/ml | HIV-1 % Protection (HIV-1 (IIIB)): 37.5%
O=[N+]([O-])c1ccc(CS(=O)(=O)c2cccc[n+]2[O-])c(Cl)c1 [Compound 69] | – | 20.0% | 2.9 µg/mL (≈ 8.82 µM) | >5 µg/mL | 2.90 µg/mL (≈ 8.82 µM) | –
[O-][n+]1ccccc1[S+]([O-])Cc1ccc2c(c1)OCO2 (centres unmarked) [Compound 96] | – | 0.0% | 12.0 µg/mL (≈ 43.3 µM) | >50 µg/mL | 20.00 µg/mL (≈ 72.1 µM) | –
CC(C)c1ccc(C(C)C)c(C[S+]([O-])c2cccc[n+]2[O-])c1 (centres unmarked) [Compound 95] | 37.5% | – | ≧4 ug/ml | 4.1 µg/mL | >4 µg/mL | –
Cc1ccc(CS(=O)(=O)c2cccc[n+]2[O-])cc1 [Compound 11] | – | – | 10.0 µg/mL (≈ 38 µM) | 29.0 µg/mL | 13.00 µg/mL (≈ 49.4 µM) | –
